Measurements reported in ChEMBL document CHEMBL1139994, “Discovery of novel dialkyl substituted thiophene inhibitors of HCV by in silico screening of the NS5B RdRp” (Bioorg Med Chem Lett, 2007).

Assays:
Hepatitis C virus [1] = experiment: Inhibition of HCV replicase complex in cell-free assay; conditions: Hepacivirus hominis
[2] = Ratio of CC50 for Huh7 cells to EC50 for HCV; type: functional, Huh-7
Hepatitis C virus [3] = experiment: Antiviral activity against HCV by replicon assay

Row | IC50 (Hepatitis C virus [1]) | EC50 (Hepatitis C virus [3]) | SMILES | Ratio CC50/EC50 [2]
1 | > 100 µM |  | Cc1sc(NC(=O)CCc2ccccc2)c(C(N)=O)c1C | 
2 | 25 µM | 1.66 µM | CCc1c(C)sc(NC(=O)CCc2ccccc2)c1C#N | 3
3 | > 100 µM |  | CCc1c(C)sc(NC(=O)CCc2ccccc2)c1C(=O)O | 
4 | 50 µM | 0.92 µM | CCc1c(C)sc(NC(=O)CCc2ccccc2)c1C(N)=O | 3
5 | > 100 µM |  | NC(=O)c1c(NC(=O)CCc2ccccc2)sc2c1CCCC2 | 
6 | 30 µM | 1.95 µM | CCC1CCc2c(sc(NC(=O)CCc3ccccc3)c2C(N)=O)C1 (stereo not given) | 3
7 | > 100 µM |  | CCOC(=O)c1c(NC(=O)CCc2ccccc2)sc(C)c1CC | 
8 | > 100 µM |  | CCC1CCc2c(sc(NC(=O)CCc3ccccc3)c2C#N)C1 (stereo not given) | 
9 | > 100 µM |  | CC1CCc2c(sc(NC(=O)CCc3ccccc3)c2C(N)=O)C1 (stereo not given) | 
